Where two headings read alike, the source gives them in different places.
Key:
IgM = conditions: in vivo; cited from earlier work
[1] = test system: IgG, B-cell subtypes, adverse events; conditions: human, in vivo
Procedure: MS patients are treated with either ofatumumab or Ocrevus (ocrelizumab). Selected patients having psoriatic arthritis are monitored under a special study program. […] Some of them cannot take a disease-modifying antirheumatic drugs (DMARD) such as • Leflunomide (Arava), • Methotrexate (Otrexup, Rasuvo, Rheumatrex, Trexall) or • Sulfasalazine (Azulfidine).
Thus, they are treated with an immunosuppressant, i.e. one of • Azathioprine (Imuran, Azasan) or • Cyclosporine (Gengraf, Neoral, Sandimmune).

[2] = test system: serum immunoglobulin (IgG); conditions: cited from earlier work
total immunoglobulins = conditions: over the controlled period of the studies, mainly driven by reduction in IgM; cited from earlier work
MS patients = conditions: cited from earlier work; for reduction in annualized relapse rate compared to teriflunomide: p<0.001
[3] = test system: (total) IgG, B-cell subtypes; conditions: human, in vivo
Procedure: Ofatumumab is administered s.c. to RRMS patients. If injection-related reactions occurs, symptomatic treatment is provided. For patients who experienced pain, redness or itching, hydrocortisone cream is applied after the injection to help with itching, redness and swelling. A pain reliever is also be used.

[4] = test system: Immunoglobulin G, Plasma/Serum; parameters: species or system human; conditions: in vivo
Procedure: (§1) ASCLEPIOS I and II are double-blind, double-dummy, active comparator-controlled, parallel-group, innovative, adaptive design, multicentre trials. Patients were randomised (1:1) to receive either ofatumumab 20 mg sc injections every 4 weeks (after an initial loading regimen of 20 mg sc doses on Days 1, 7 and 14) or teriflunomide 14 mg orally once daily, for up to 30 months. The studies have flexible durations, with termination occurring in the blinded core treatment epoch according to pre-specified criteria. Patients aged 18-55 years with an Expanded Disability Status Scale (EDSS) score (according to Kurtzke, Neurology. 1983, November; 33(11): 1444-52) of 0-5.5 at screening who experienced ≥1 relapse in the past year or ≥2 relapses in the past 2 years or a positive gadolinium-enhancing (Gd+) MRI scan during the year before randomisation were included.
(§2) Serum IgG/IgM levels were monitored at baseline, Week (W) 4, W12 and every 12 weeks, see FIG. 1. […] Reference is made to FIG. 1.
• At each visit-window, only patients with a value at both Baseline and that visit-window are included.

[5] = parameters: species or system human; conditions: in vivo
Procedure: as §1, §2

[6] = test system: urinary tract infections, B-cell subtypes; conditions: human, in vivo
Text: A first group of patients is monitored after an ischemic stroke. A sub-group of the patients are expected to have difficulty with urinary leakage or are not able to empty their bladder completely because of muscle weakness. For these reasons, a catheter will be placed inside the bladder. However, there is an increased risk of urinary tract infections related to the use of a catheter. These infections will be treated with one of • Trimethoprim/sulfamethoxazole (Bactrim, Septra, others), • Fosfomycin (Monurol), • Nitrofurantoin (Macrodantin, Macrobid), • Cephalexin (Keflex) or • Ceftriaxone.
A second group of patients consists of ofatumumab-treated MS patients. A sub-group of the patients develops adverse events, including urinary tract infections. These infections are treated with one of • Trimethoprim/sulfamethoxazole (Bactrim, Septra, others), • Fosfomycin (Monurol), • Nitrofurantoin (Macrodantin, Macrobid), • Cephalexin (Keflex) or • Ceftriaxone.

[7] = test system: total B cells (CD19+ CD45+), CD20+ CD3+ T cells; experiment: APLIOS Phase 2 study: B and T-cell subsets in blood by FACS; format: in vivo, human; conditions: 20 mg s.c.
Procedure: APLIOS was a 12-week, open-label, Phase 2 bioequivalence study. Patients received ofatumumab 20 mg (0.4 mL) s.c. loading doses on Days 1, 7 and 14, and maintenance doses every 4 weeks from Week 4 via a prefilled syringe or an autoinjector pen (SensoReady). Changes in B and T-cell subsets were analysed longitudinally in blood samples of a group of patients using fluorescence-activated cell sorting (FACS).

## rituximab
IgM
  effect on IgM levels: depression of IgM levels

## ocrelizumab
[1]
  adverse events (e.g. infections) after treatment with the immunosuppressant: significantly more adverse events
[2]; after two years (96 weeks), pooled OPERA
  reduction of IgG levels: approx. 5%
[2]; assessed over 5.5 years
  reduction in serum Ig levels, approximate mean rate: 3-4 % per year
Total immunoglobulins
  change in total immunoglobulins: decrease in total immunoglobulins

## ofatumumab
[1]
  follicular B-cell subtype: marked decrease
  level of IgG versus Ocrevus-treated patients: significantly higher
  marginal zone and germinal center B-cell subtypes: less affected
MS patients; ASCLEPIOS I
  reduction in annualized relapse rate compared to teriflunomide: 50.5%
MS patients; ASCLEPIOS II
  reduction in annualized relapse rate compared to teriflunomide: 58.5%
MS patients; in vivo
  suppression of gadolinium (Gd) T1 lesions compared to Aubagio: highly significant suppression
MS patients; pre-specified pooled analyses, p=0.012
  relative risk reduction in 6-month CDP versus Aubagio: 32.5%
[3]
  combined immunosuppression or toxicity of ofatumumab and hydrocortisone: no evidence
  follicular B-cell subtype: marked decrease
  marginal zone and germinal center B-cell subtypes: less affected
[3]; sc
  level of (total) IgG in patients with injection-related reactions versus without reactions and hydrocortisone: comparable
[4]
  IgG decrease as compared with teriflunomide-treated patients: less pronounced and shorter
  turning point at which the trend of decreasing IgG levels reverses: 36 week
[5]
  incidence of infections: Advantageous low incidence
[6]
  follicular B-cell subtype: marked decrease
  management of urinary tract infections: No significant difference
  marginal zone and germinal center B-cell subtypes: less affected
[7]
  depletion of CD20+ CD3+ T cells: rapidly and potently depleted
  depletion of memory B cells (CD19+ CD45+ CD27+) compared with naïve B cells: more efficient depletion
[7]; by Day 7 through Day 14 of the loading regimen, maintained for remaining study duration
  median total B-cell levels: ≤ 5 cells/μL
[7]; measured on Day 4 and Day 7
  depletion in total B cells (CD19+ CD45+): rapid and sustained depletion
